Where only a bound is given, the exact number is not on record here.

Data set [1] in a line: Mouse pharmacokinetic (PK) study. In kind it is in vivo. The following applies: plasma, male BALB/c mice, PO 10 mg/kg, IV 2 mg/kg. The text has this:
The mouse was used to determine the pharmacokinetics of compounds of the invention. This species is widely used to assess the bioavailability of compounds by administering both oral (PO) and intravenous (IV) test articles. Efficacy of the compounds of the invention was compared by assessing plasma exposure in male BALB/c mice either via IV or PO administration at the times of peak activity.
Compounds of the invention were reconstituted in a phosphate buffered saline (PBS)/10% Solutol (HS 15) clear solution resulting in a concentration of 0.2 mg/mL and administered to mice (2 mg/kg) as a single IV dose. Animals were dosed via the lateral tail vein. […] The plasma was transferred into labeled polypropylene tubes and frozen at −70° C. until analyzed by LC/MS/MS.
The compounds of the invention were reconstituted in 40% Propylene Glycol/40% Propylene Carbonate/20% of a 5% Sucrose clear solution resulting in a concentration of 2 mg/mL and administered to mice (10 mg/kg) as a single oral dose via gavage. […] The plasma was transferred into labeled polypropylene tubes and frozen at −70° C. until analyzed by LC/MS/MS.
Plasma samples at each timepoint were analyzed using a LC-MS/MS with a lower limit of quantification (LLOQ) of 1 ng/mL. […]
In addition to the above PK parameters, bioavailability (% F) was calculated.

Data set [2] deals with ovalbumin (OVA)-induced asthma. The data set can be described thus: Mouse model of ovalbumin (OVA)-induced asthma, eosinophil infiltrate in BALF. The format is in vivo. The following applies: three oral doses of 10 mg/kg at 48 h, 24 h, and 1 h prior to assessment; p<0.05. Here is the method:
A mouse model of ovalbumin (OVA)-induced asthma was used to screen GSNOR inhibitors for efficacy against methacholine (MCh)-induced bronchoconstriction/airway hyper-responsiveness. This is a widely used and well characterized model that presents with an acute, allergic asthma phenotype with similarities to human asthma. Efficacy of GSNOR inhibitors was assessed using a protocol in which GSNOR inhibitors were administered after OVA sensitization and airway challenge, and prior to challenge with MCh. Bronchoconstriction in response to challenge with increasing doses of MCh was assessed using whole body plethysmography (Penh; Buxco). The amount of eosinophil infiltrate into the bronchoaveolar lavage fluid (BALF) was also determined as a measure of lung inflammation. […]
In vivo airway responsiveness to methacholine was measured 24 h after the last OVA challenge in conscious, freely moving, spontaneously breathing mice with whole body plethysmography using a Buxco chamber (Wilmington, N.C.). […] The degree of bronchoconstriction was expressed as enhanced pause (Penh), a calculated dimensionless value, which correlates with the measurement of airway resistance, impedance, and intrapleural pressure in the same mouse. Penh readings were taken and averaged for 4 min. after each nebulization challenge. […]

What is called bioavailability is the share of a dose that reaches the circulation, judged against a reference dose that is usually intravenous. Consider `O=C(O)c1ccc(-c2ccc3cc(O)ccc3c2)c(Cl)c1` [Example 1, 3-chloro-4-(6-hydroxynaphthalen-2-yl)benzoic acid], for which the bioavailability in data set [1] is over 40%. For the same compound, the “decrease of eosinophil infiltration in BAL, of vehicle control” value in data set [2] came out at 44%.
